Reference: patent US20200214998A1, “Method for Treating a Brain Cancer” (Allianz Pharmascience Ltd., priority 2019, published 2020)

Tested on: U87MG-R
Test: Orthotopic TMZ-resistant GBM mouse model, intracranial U87MG-R
Conditions: TMZ (15 mg/kg oral) plus vehicle; untreated control 21 days
Method: Animal survival was evaluated from the first day of treatment until death.
TMZ-resistant GBM inoculated orthotopic mice were randomly grouped and treated with TMZ or TMZ plus JM17.
Briefly, a skull burr hole was first created in the right frontal brain area. An ultra-fine needle was then inserted to a depth of 3 mm using stereostatic guiding, and 5×10^5 TMZ-resistant cells were injected.
Twenty-eight-week-old nude mice received U87MG-R transplantation. Five days later, these animals were randomized into four treatment groups (7 animals per group), which received TMZ (15 mg/kg) by oral gavage and JM17 by the intravenous injection three times per week (Day 1, 3, 5 of the week) as follows: Control (untreated), TMZ plus vehicle, TMZ plus JM17 (5 mg/kg) and TMZ plus JM17 (20 mg/kg) (FIG. 5).

## Cn1nnc2c(C(N)=O)ncn2c1=O [TMZ, temozolomide]
  median survival: 20 days
